Entries after “also recorded” stand apart in the source; their conditions may differ.
What was measured:
CYP26A1 mRNA = CYP26A1 mRNA in T6PNE cells; type: cell-based, human; conditions: 2 days, 0.25 mM palmitate, NCT 10 μM, 4-OH-RA 20 μM
Description: (§1) Quantitative PCR (Q-PCR) from in vitro cell culture experiments used total RNA purified using RNeasy Kits (Qiagen). For liver tissue samples, total RNA was isolated using Trizol (Invitrogen) and prepared for RNAseq (mouse liver DMSO and NCT, N=3). cDNA was amplified using 3 μg of total RNA using qScript cDNA SuperMix (Quanta BioSciences, Beverly, Mass., USA). QPCR analysis was performed using SYBR® Select Master Mix (Applied Biosystems) and ABI 7900HT (Applied Biosystems, Thermo Fisher Scientific). The Ct values of mRNA expression were then normalized to the 18 s rRNA values and are expressed as fold change over samples from mice fed normal chow for in vivo experiments or DMSO controls for cell culture experiments.

LC3B = test: anti-LC3B Western blot in T6PNE cells; type: cell-based, human; conditions: 10 μM
Description: Whole-cell extracts were prepared by incubation in RIPA buffer (Invitrogen) containing protease inhibitors (Calbiochem, San Diego, Calif.). Protein ([…]) was separated on 12% or 16% Tri-Glycine gels (Invitrogen) and transferred to Immobilon P membrane (0.2 μm pore, Millipore). After 1 h in phosphate-buffered saline-Tween (PBST) with 3% milk, membrane was incubated with antibodies to HNF4α (mouse, Novus, 1:1000), LC3B (rabbit, Novus, 1:500), p62 (SQSTM1, mouse, Santa Cruz, 1:1000) or β-actin (mouse, Santa Cruz, 1:2000), followed by secondary antibody conjugated to horseradish peroxidase (1:5000, Jackson Immune).

[1] = type: in vivo; conditions: mice, 30, 60, 120 and 240 mg/kg bid for 3 days, IP
Description: (§2) For dose response experiments, mice were injected intraperitoneally with 10% DMSO as vehicle control or 4 different doses of NCT (30, 60, 120 and 240 mg/kg of body weight) dissolved in 10% DMSO. Mice received 2 doses per day with a 5 h interval between injections for 3 days. To test the effect of NCT (Sundia MediTech Company, Ltd., Custom synthesis), 200 mg/kg was injected IP bid for 14 days. On day 15, mice received a final dose of NCT followed by IP injection with 3 g/kg dextrose. One h later, blood samples were collected and mice were euthanized using pentobarbital. Total mouse, liver and epididymal fat pad weights were measured. Dissected liver samples were washed in cold PBS, cut into small pieces and distributed for analyses. For RNA isolation and ELISA, liver samples were snap frozen using liquid nitrogen and stored at −80° C. For histomorphometry and immunofluorescence analysis, liver samples were fixed in 4% of cold PFA and processed for histology. All animal experiments were approved by the Institutional Animal Care and Use Committee (IACUC) of the Sanford Burnham Prebys Medical Discovery Institute in accordance with national regulations.
Having established that NCT reduces the level of stored fat in cells in vitro, it was of interest to determine its effect in vivo. […]

SPNS2 mRNA = SPNS2 mRNA in primary human hepatocytes; type: cell-based; conditions: high fat media, 5, 15, 40 µM, Day 4 to Day 10
Description: Experiments with primary human hepatocytes were performed by CN-Bio (Cambridge, UK). Primary human hepatocytes (PHHs), human Kupffer cells (HKs) and human stellate cells (HSCs) were seeded onto CN-Bio's PhysioMimix LC12 MPS culture plates at 6×10^5 cells for PHHs and 6×10^4 cells for HKs and HSCs in 1.6 ml of CN-Bio's HEP-lean media with 5% FCS. Throughout the experiment the cells were maintained at a flow rate of 1 μl/s. After 24 h (Day 1) of seeding, the media was changed to HEP-lean media and the cells were incubated until day 4 to allow the cells to form microtissues. At day 4 post seeding, media was changed to HEP-fat media and treated with DMSO or NCT (5, 15, 40 μM). Media was replaced on days 6 and 8. Cells were harvested on day 10 for RNA extraction. Data are presented as mean ±SEM of three or more samples as indicated. Statistical significance was assessed using Student's t-test, ANOVA or R^2 coefficient of correlation.

HNF4α = target: T1, HNF4α (Mus musculus, UniProt P49698); test: hepatic HNF4α expression in DIO mice; type: in vivo; conditions: 200 mg/kg bid IP, 14 days; for hepatic HNF4α protein (nuclear staining): 200 mg/kg
T1 construct: from tissue; host or cells: liver of C57BL/6 J DIO male mice
T1 sequence (P49698 1-474): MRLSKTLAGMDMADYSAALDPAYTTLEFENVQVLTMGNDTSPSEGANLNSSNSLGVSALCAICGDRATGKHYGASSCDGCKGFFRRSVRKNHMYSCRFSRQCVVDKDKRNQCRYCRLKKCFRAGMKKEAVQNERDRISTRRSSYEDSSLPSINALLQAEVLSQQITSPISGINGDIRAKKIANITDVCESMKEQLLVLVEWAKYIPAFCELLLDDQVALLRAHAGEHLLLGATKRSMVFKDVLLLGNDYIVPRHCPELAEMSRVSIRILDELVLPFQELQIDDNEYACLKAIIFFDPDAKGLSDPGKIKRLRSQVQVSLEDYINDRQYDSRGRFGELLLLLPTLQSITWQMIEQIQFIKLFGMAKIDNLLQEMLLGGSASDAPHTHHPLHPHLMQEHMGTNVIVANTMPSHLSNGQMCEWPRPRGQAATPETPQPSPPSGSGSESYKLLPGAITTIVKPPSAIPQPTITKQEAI
Description: as §1
as §2, with “For histomorphometry and immunofluorescence analysis, liver samples were fixed in 4% of cold PFA and processed for histology. All animal experiments were approved by the Institutional Animal Care and Use Committee (IACUC) of the Sanford Burnham Prebys Medical Discovery Institute in accordance with national regulations.” left out
Frozen liver sections were permeabilized using 0.3% Triton-X and incubated in antigen retrieval solution (Antigen retrieval citrate, Biogenex) at sub boiling temperature for 10 min. […] Slides were mounted using fluorescence mounting medium and images were obtained at 40× magnification using an Olympus IX71 fluorescence microscope. Fluorescence intensity of HNF4α-stained nuclei was calculated using MetaMorph TL software (version 7.6.5.0, Olympus).

SMILES: O=C(/C=C/c1ccc(O)c(O)c1)NCCc1ccc(O)cc1 [NCT, N-trans-caffeoyltyramine]
- CYP26A1 mRNA level (CYP26A1 mRNA): induced CYP26a1
- LC3B-II to LC3B-I ratio (LC3B): induced increases
- tolerability [1]: well tolerated
- SPNS2 mRNA (SPNS2 mRNA): did not induce a change in SPNS2 expression
- hepatic HNF4α mRNA (HNF4α): reversed the loss
- hepatic HNF4α protein (nuclear staining) (HNF4α): reversed the loss of HNF4α protein; also recorded: recovery of normal hepatic HNF4α expression
- hepatic HNF4α protein (nuclear staining) (HNF4α; listed as N-trans-caffeoyltyramine): reversed that reduction; also recorded: increased the HNF4a staining
